According to ChEMBL document CHEMBL1201862, “PubChem BioAssay data set” (2004):
The source made the active and inactive calls.

How the values were obtained:
[1] = Luminescence Cell-Based Dose Response HTS to Identify Inhibitors of 5'UTR Stem-Loop Driven Prion Protein mRNA Translation in H4 Neuroglioblastoma Cells. [Related pubchem assays: 1827 (Project Summary), 1813 (Primary HTS)]; type: functional
[2] = target: Glucose-6-phosphate 1-dehydrogenase (Homo sapiens, UniProt P11413); test: inhibition of Homo sapiens G6PD, dose series – biochemical, fluorescence, selectivity assay for P. falciparum G6PD inhibitor project, dose response (AID 504792); type: functional
Glucose-6-phosphate 1-dehydrogenase, sequence (P11413 whole entry): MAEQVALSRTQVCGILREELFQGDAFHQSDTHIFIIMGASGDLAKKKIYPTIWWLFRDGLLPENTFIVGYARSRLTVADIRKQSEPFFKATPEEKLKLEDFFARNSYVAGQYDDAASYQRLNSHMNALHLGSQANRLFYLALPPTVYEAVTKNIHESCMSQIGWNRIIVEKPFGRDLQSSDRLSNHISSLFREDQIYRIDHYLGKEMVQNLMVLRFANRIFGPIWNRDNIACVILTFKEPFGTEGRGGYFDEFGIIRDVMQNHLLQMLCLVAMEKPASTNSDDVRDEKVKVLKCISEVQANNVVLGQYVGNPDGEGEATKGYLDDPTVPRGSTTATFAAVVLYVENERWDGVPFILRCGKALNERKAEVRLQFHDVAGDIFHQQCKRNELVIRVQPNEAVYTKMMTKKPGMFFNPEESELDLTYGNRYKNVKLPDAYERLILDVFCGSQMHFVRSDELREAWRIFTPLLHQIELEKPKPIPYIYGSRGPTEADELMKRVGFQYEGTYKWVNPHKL

Protein RecA = target: T1, Protein RecA (Mycobacterium tuberculosis, UniProt P9WHJ3); test: Fluorescence Cell-Free Homogeneous Dose Retest to Identify Inhibitors of RecA-Intein Splicing Activity. [Related pubchem assays (depositor defined):AID2097, AID2223, AID489010, AID492950]; type: functional
T1 sequence (P9WHJ3 whole entry): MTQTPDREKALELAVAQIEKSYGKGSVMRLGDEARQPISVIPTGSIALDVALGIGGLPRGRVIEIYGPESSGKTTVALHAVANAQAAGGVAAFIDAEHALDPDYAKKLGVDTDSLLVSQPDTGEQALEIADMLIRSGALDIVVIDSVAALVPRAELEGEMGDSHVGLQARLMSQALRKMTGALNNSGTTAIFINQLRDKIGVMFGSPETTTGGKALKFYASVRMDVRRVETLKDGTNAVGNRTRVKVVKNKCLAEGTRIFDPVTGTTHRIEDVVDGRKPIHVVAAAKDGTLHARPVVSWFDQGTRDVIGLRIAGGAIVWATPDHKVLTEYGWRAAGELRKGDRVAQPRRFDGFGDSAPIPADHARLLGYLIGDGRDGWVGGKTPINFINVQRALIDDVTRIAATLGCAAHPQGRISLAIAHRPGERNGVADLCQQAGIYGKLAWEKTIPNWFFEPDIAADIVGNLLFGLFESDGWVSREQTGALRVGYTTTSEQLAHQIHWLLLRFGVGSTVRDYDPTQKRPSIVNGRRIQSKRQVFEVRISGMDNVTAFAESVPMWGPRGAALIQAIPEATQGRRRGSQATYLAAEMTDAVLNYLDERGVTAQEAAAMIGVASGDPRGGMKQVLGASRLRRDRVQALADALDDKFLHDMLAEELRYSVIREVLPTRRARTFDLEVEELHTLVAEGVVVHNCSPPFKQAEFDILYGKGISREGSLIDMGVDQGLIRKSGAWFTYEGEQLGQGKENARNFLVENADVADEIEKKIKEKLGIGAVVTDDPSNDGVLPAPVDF

Genome polyprotein = Genome polyprotein (dengue virus type 2, UniProt P29990); test: flavivirus cap methylation enzyme inhibition – biochemical, confirmation dose response, primary screen (AID 588689); type: functional
Genome polyprotein, sequence (P29990 2492-3391 limits assumed): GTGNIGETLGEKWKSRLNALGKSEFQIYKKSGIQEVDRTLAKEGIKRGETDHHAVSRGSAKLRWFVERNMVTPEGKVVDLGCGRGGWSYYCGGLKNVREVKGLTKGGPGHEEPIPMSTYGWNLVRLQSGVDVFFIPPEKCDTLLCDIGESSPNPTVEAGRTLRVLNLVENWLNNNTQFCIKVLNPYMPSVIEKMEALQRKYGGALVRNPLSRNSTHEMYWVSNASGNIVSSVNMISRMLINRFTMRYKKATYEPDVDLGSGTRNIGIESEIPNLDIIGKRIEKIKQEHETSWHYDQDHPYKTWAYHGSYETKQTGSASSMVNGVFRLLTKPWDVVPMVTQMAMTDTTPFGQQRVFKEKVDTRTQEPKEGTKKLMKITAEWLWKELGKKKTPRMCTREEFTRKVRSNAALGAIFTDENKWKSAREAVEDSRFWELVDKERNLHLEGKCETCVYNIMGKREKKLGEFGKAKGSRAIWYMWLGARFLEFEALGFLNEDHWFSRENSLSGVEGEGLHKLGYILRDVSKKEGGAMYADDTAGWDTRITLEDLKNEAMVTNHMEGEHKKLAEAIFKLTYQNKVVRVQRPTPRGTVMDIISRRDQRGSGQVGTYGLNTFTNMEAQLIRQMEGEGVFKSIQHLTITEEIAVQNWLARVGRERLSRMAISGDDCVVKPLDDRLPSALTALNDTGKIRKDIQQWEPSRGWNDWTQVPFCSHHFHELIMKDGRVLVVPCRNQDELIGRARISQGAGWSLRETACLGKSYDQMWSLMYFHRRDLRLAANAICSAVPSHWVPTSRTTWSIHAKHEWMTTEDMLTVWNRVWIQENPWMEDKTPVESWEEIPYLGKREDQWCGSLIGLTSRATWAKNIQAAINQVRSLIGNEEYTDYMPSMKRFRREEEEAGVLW

[3] = target: Cystic fibrosis transmembrane conductance regulator/Golgi-associated PDZ and coiled-coil motif-containing protein (Homo sapiens, UniProt P13569+Q9HD26); test: potency against CAL PDZ-peptide interaction – biochemical, fluorescence polarization, Cerulean-tagged CAL PDZ, cherry-picks, dose response (AID 504773)
[4] = target: T2, RNA-binding protein pos-1 (Caenorhabditis elegans, UniProt G5EF15); test: disruptors of C. elegans POS-1 RNA interaction – biochemical, fluorescence polarization, dose response (AID 1964);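 also: purified POS-1 fused to maltose binding protein made in E. coli; potency of compounds blocking POS-1 binding to fluorescent RNA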
T2 sequence (G5EF15 whole entry): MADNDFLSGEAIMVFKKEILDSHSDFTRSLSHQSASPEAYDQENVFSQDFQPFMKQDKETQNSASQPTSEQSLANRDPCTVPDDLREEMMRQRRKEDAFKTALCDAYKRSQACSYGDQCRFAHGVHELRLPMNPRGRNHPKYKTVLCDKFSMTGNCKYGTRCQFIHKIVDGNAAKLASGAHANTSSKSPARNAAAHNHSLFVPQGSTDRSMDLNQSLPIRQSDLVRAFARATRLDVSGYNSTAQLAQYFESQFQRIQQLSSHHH

[5] = target: Tyrosyl-DNA phosphodiesterase 2 (Homo sapiens, UniProt O95551); test: potency against TDP2 phosphodiesterase activity – biochemical, epi absorbance, IC50, dose response (AID 743297)
Tyrosyl-DNA phosphodiesterase 2, sequence (O95551 whole entry): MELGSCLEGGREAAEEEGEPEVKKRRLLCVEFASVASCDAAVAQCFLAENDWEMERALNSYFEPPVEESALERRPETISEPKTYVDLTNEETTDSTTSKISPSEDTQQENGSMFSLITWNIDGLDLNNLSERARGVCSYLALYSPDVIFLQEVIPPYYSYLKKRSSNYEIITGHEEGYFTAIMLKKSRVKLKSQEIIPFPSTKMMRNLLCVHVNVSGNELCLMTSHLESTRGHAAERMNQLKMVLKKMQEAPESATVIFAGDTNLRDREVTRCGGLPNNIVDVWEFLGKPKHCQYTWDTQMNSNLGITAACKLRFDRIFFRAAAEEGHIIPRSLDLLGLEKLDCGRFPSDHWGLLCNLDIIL

Vero = test: viability of Vero cells under compound – cytotoxicity control for flavivirus capping enzyme inhibitors (AID 588742); type: functional; details: Chlorocebus sabaeus
[6] = luciferase reporter signal suppression in cells – H4 neuroglioma cells, luminescence, dose response (AID 1990); type: functional, cell-based
[7] = target: T3, Zinc finger protein mex-5 (Caenorhabditis elegans, UniProt Q9XUB2); test: potency of MEX-5 RNA-binding blockers – biochemical, C. elegans, fluorescence polarization, dose response (AID 1960)
T3 sequence (Q9XUB2 whole entry): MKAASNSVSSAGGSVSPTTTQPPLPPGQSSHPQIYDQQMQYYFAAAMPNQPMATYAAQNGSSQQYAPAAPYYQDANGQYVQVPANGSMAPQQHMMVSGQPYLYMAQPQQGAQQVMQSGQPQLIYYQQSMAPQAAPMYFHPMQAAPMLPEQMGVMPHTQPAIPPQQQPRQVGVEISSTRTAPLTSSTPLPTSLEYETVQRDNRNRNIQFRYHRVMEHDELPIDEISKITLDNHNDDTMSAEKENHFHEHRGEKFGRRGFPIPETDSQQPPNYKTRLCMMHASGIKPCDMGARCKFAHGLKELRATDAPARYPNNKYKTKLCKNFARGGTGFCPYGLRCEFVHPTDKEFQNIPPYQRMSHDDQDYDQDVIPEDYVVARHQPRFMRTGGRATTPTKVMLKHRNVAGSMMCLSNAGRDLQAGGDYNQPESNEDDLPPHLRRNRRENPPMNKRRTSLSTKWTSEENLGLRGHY

[8] = target: T4, Replicative DNA helicase DnaB (Mycobacterium tuberculosis, UniProt P9WMR3); test: DnaB intein splicing inhibitors, dose response, biochemical, cell-free fluorescence (AID 449749); type: functional
T4 sequence (P9WMR3 whole entry): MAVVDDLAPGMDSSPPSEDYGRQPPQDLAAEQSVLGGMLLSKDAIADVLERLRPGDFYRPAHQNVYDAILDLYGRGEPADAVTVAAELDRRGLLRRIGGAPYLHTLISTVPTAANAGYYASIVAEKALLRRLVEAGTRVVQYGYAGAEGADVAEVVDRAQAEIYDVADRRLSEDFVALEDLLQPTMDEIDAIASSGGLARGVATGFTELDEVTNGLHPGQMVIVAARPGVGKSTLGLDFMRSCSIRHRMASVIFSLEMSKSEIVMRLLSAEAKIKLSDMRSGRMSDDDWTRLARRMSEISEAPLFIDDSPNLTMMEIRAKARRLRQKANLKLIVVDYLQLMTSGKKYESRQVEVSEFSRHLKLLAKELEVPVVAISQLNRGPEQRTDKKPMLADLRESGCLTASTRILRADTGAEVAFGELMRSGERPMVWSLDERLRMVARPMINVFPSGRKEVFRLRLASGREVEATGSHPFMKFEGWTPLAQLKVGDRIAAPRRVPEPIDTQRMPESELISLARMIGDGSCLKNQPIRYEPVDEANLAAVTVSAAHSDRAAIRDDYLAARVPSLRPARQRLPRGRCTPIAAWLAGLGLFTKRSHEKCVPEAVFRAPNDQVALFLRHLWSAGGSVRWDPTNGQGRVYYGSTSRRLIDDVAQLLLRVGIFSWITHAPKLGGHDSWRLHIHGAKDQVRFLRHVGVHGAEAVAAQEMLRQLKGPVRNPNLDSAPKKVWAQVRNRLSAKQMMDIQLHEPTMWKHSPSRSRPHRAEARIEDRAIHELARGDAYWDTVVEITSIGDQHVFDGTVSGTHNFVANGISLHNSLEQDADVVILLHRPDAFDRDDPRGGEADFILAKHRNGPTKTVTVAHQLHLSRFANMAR

[9] = disruptors of CAL PDZ reporter peptide binding – biochemical, fluorescence polarization, untagged CAL PDZ, dry powder, dose response (AID 602255); type: functional
[10] = alpha-synuclein stem-loop luciferase translation blockers – H4 neuroglioma cells, luminescence, confirmation (AID 1988); type: functional, cell-based
[11] = target: T5, High affinity choline transporter 1 (Homo sapiens, UniProt Q9GZV3); test: human choline transporter blockers, potency – cell-based, 5-point CRC, membrane potential dye, dose response (AID 504840); type: functional
T5 sequence (Q9GZV3 whole entry): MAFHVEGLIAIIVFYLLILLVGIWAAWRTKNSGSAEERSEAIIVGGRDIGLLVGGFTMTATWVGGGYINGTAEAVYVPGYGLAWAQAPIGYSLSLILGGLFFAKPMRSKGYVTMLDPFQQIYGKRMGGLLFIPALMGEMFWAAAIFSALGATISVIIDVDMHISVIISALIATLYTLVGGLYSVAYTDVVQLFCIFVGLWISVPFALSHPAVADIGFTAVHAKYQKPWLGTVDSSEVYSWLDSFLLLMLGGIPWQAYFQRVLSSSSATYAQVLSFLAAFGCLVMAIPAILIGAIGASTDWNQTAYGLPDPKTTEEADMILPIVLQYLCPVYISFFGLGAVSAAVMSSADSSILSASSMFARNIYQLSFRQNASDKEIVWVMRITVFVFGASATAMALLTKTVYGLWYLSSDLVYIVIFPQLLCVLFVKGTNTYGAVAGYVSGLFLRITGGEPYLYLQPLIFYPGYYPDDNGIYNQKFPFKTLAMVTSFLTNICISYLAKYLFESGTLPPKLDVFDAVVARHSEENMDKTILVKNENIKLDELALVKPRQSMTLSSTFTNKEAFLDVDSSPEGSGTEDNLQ

[12] = target: T5, High affinity choline transporter 1; test: human choline transporter blockers, potency – cell-based, 10-point CRC, membrane potential dye, dose response (AID 588401); type: functional;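 also: membrane potential dye fluorescence of choline-evoked depolarization via CHT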
Melanocortin receptor 4 = Melanocortin receptor 4 (Homo sapiens, UniProt P32245); type: functional, cell-based;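 also: Cell-based assay with luminescence read-out, confirmatory dose-response testing for agonist activity of biased ligands at MC4R; human U2OS cells with tagged receptor and beta-arrestin; potency of agonists that increase receptor coupling to beta-arrestin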
Melanocortin receptor 4, sequence (P32245 whole entry): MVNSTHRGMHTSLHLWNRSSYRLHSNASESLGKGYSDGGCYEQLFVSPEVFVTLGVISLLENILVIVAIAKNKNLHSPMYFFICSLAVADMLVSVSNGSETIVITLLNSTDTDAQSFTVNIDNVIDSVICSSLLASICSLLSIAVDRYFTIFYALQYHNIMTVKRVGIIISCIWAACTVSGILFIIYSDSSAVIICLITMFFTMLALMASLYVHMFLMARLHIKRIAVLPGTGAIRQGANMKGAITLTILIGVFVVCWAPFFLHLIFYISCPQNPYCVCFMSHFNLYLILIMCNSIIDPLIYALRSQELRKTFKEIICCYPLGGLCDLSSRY

H9c2 = test: cells; type: functional, cell-based; details: Rattus norvegicus, H9c2, Myocardium;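 also: confirmatory concentration-response retest of ultra-high-throughput screening hits for modulation of myocardial damage; cell death induced by hydrogen peroxide oxidative stress; compound pretreatment for 60 min then peroxide exposure for 2 h; potency is for protecting the cells against peroxide damage rather than for killing them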
[13] = target: T6, Small ubiquitin-related modifier 1 (Homo sapiens, UniProt P63165); test: SUMO1 protein-protein binding blockers, potency – biochemical, FRET, dose response (AID 624383); type: functional; details: read-out: IC50_Mean
T6 sequence (P63165 whole entry): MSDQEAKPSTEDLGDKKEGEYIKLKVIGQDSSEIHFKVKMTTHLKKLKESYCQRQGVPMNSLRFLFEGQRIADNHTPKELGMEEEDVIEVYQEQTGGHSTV

[14] = target: T6, Small ubiquitin-related modifier 1; test: SUMO1 protein interaction blockers, potency – biochemical, fluorescence polarization, uHTS hits, dose response (AID 624382); type: functional; details: read-out: IC50_Mean
[15] = target: DNA (cytosine-5)-methyltransferase 1 (Homo sapiens, UniProt P26358); test: inhibition of DNA methylation by DNMT1 – biochemical, fluorescent molecular beacon, confirmation (AID 602386); type: functional
DNA (cytosine-5)-methyltransferase 1, sequence (P26358 whole entry): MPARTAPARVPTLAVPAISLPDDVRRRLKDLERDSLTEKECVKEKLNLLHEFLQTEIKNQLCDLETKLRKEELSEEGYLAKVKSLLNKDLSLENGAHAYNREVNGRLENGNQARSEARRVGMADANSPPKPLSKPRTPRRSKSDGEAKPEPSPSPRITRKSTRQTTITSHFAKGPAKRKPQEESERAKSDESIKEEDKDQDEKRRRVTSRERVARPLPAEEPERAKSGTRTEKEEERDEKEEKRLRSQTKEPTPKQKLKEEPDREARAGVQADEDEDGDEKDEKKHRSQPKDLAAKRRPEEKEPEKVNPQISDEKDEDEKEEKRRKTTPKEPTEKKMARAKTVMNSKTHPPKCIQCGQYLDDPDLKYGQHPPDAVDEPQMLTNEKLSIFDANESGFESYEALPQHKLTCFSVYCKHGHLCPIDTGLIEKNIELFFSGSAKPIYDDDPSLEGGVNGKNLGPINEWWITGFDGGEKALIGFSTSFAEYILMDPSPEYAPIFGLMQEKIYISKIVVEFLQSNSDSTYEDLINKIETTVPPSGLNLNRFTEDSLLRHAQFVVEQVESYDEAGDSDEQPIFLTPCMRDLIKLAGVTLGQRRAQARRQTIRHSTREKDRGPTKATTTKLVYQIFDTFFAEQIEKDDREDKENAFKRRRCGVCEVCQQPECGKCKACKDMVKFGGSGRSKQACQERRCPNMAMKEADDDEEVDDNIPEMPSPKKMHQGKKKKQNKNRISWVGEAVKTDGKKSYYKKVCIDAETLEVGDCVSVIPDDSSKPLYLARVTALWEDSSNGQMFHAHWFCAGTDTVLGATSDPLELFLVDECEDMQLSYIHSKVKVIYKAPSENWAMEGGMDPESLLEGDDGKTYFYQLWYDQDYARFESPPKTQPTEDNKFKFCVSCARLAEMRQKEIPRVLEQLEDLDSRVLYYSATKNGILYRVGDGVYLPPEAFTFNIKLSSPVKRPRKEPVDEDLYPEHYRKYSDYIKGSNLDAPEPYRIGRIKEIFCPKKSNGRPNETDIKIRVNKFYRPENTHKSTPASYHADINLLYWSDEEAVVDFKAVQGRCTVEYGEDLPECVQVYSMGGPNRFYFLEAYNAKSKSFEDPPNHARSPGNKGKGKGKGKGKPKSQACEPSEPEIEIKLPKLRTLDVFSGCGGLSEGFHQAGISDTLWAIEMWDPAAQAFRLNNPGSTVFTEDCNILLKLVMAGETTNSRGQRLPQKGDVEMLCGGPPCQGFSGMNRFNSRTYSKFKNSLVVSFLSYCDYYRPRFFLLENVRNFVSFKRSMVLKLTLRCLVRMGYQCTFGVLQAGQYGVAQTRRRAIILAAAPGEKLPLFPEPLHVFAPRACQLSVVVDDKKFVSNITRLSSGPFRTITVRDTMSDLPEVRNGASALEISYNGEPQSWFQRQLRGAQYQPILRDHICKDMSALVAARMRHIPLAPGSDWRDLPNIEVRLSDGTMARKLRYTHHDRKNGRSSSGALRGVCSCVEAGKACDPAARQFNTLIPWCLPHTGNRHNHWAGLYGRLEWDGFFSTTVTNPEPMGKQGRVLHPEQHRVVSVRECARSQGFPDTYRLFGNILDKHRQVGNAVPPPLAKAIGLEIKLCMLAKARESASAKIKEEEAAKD

Albumin = Albumin (Bos taurus, UniProt P02769); test: Counterscreen for inhibitors of T-cell receptor (TCR)-CD3 interaction: Fluorescence-based biochemical high throughput dose response assay to identify inhibitors of T-cell receptor (TCR)-CD3 interaction using a TAMRA-labeled BSA probe.; type: functional
Albumin, sequence (P02769 whole entry): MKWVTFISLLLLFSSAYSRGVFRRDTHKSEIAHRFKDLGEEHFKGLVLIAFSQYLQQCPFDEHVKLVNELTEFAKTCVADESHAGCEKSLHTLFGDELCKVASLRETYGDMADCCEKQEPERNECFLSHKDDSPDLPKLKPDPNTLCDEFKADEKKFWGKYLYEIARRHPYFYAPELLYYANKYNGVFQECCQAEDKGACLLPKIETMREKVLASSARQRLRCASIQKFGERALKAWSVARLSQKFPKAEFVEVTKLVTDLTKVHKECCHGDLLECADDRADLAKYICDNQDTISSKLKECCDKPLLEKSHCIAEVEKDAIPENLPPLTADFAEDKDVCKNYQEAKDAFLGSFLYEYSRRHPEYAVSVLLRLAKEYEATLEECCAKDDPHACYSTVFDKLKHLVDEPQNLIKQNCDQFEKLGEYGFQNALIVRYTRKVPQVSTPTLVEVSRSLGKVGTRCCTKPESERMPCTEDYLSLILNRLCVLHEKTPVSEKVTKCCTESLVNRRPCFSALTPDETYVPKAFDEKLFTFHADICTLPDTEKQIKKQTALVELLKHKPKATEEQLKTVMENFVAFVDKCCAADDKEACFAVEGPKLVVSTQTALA

[16] = target: T7, Apoptotic protease-activating factor 1 (Homo sapiens, UniProt O14727); test: SAR analysis of small molecule Activators of Apaf-1 in a Fluorescent assay.; type: functional; details: read-out: EC50_Mean;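 also: caspase-3 cleavage of fluorogenic Rh110 DEVD substrate downstream of apoptosome activation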
T7 sequence (O14727 whole entry): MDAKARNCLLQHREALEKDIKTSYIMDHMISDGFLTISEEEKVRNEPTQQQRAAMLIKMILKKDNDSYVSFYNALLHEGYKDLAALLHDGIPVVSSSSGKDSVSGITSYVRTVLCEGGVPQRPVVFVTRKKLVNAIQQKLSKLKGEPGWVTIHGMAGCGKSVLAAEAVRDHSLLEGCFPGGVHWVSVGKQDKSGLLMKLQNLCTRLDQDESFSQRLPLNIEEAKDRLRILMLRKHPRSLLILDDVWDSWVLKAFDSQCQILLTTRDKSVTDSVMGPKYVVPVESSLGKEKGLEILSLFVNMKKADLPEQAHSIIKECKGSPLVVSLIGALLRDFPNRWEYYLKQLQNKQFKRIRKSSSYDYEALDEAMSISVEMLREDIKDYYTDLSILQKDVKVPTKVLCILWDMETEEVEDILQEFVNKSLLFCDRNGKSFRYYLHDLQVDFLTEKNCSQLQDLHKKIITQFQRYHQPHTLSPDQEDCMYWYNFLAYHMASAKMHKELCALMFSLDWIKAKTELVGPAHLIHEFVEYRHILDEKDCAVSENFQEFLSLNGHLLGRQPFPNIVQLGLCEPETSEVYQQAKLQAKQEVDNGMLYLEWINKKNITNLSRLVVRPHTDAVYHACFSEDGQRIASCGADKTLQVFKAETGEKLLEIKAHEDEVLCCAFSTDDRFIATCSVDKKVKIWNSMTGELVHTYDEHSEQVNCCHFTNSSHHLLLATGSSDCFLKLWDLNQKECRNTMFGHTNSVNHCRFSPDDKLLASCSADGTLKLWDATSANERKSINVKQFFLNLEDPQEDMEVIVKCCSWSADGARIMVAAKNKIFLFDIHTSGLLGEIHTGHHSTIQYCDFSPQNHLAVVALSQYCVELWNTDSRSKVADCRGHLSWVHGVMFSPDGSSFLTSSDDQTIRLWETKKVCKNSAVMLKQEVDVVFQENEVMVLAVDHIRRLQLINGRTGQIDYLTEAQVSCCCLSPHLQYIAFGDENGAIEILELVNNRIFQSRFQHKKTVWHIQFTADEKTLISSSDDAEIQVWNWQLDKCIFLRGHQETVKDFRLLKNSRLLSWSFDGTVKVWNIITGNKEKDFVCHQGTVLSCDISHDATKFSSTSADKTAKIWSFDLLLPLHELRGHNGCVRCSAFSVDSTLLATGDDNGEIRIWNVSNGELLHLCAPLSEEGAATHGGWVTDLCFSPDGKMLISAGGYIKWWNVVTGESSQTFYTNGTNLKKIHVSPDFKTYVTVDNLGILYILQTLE

CCOc1ccc(S(=O)(=O)Nc2cc(SCC(=O)O)c(O)c3ccccc23)cc1
EC50 [1]: > 120 µM (not active) | IC50 [2]: 28.4 µM (inactive) | EC50 (Protein RecA): 4.23 µM (active) | IC50 (Genome polyprotein): 7.49 µM (active) | AC50 [3]: 36.2 µM (active) | EC50 [4]: 78.8 µM (active) | IC50 [5]: 68.8 µM (inactive) | CC50 (Vero): 26.6 µM (active) | EC50 [6]: > 120 µM (not active) | EC50 [7]: 11.9 µM (inconclusive) | AC50 [8]: 20.7 µM (active) | AC50 [9]: 54.4 µM (active) | EC50 [10]: > 120 µM (not active)

COc1ccc(-c2nc(C=O)cs2)cc1
IC50 [11]: 2.88 µM (active) | IC50 [12]: 3.57 µM (active)

O=C(Cc1ccc(-n2c(=O)c3ccccc3n(Cc3ccccc3F)c2=O)cc1)NCC1CCCO1 (centres undefined)
IC50 [11]: 7.14 µM (active) | IC50 [12]: 3.98 µM (active)

COc1cc(-c2cc(NC=O)c3ncc(-c4ccc(C(C)=O)cc4)n3c2)cc(OC)c1OC
EC50 (Melanocortin receptor 4): > 89.2 µM (inactive) | IC50 (H9c2): > 79 µM (inactive)

c1coc(-c2ccc3nncn3c2)c1
IC50 [13]: 7.19 µM (active) | IC50 [14]: > 66.6 µM (inactive) | IC50 [15]: 4.58 µM (active) | IC50 (Albumin): > 94.2 µM (inactive)

CCOc1ccccc1NC(=O)CCS(=O)(=O)c1ccc2c(c1)OCCO2
EC50 [16]: > 100 µM (inactive)
